Source: patent US8449923B2, “Methods for inhibiting sensory nerves by topically administering strontium-containing compositions to keratinized skin” (Cosmederm Bioscience, Inc., priority 1994, dated 2013)
Where two headings read alike, the source gives them in different places.

Tests used:
[1] = system: skin irritation induced by lactic acid (face); assay: Lactic acid irritation trial, pretreatment test (anti-irritant applied 15 minutes before irritant); assay type: in vivo, human; details: pretreatment tests; for Percent Inhibition (average inhibition of cumulative irritation): cation salt 250 mM, lactic acid irritant; for Percent Inhibition: representative subject panels, 250 mM, vehicle VIS DIFFERENCE
Protocol: (§1) The majority of the trials were conducted using lactic acid as the skin irritant, and proceeded generally as follows.
(§2) Tests were conducted in multiple panels of from 7 to 12 subjects each. Subjects were instructed not to wear any makeup or facial lotions to the clinic the day of testing. The subjects were instructed to wash their face with Ivory bar soap in the clinic prior to application of test solutions.
(§3) Lactic acid skin-irritant compositions were formulated in an appropriate vehicle prior to application to the skin of the subjects.
(§4) Test anti-irritant formulations containing measured amounts of strontium salts (concentration 250 mM) were applied either (a) 15 minutes prior to application to the skin of the skin-irritant (“pretreatment test”) or (B) simultaneously with the application of the skin-irritant (“time zero test”). […] Controls were performed by applying corresponding formulation(s) (pretreatment and/or skin-irritant composition) with an equimolar amount of sodium chloride to a contralateral portion of the subject's skin. Typically, the test materials were applied to the face of the subject.
(§5) All test solutions (including controls) were applied in a double blind, randomized fashion using the prepared solutions as previously placed in coded vial designated for use on either the right or left side of the face (or other test area). Solutions were typically applied using a cotton swab (six strokes) or sponge applicator to the face and cheek area extending from the midline of the nose over to the center of the cheek and from the cheek bone down to the jaw line. Application was made first to the right side and then to the left.
(§6) Sensory assessment scores were recorded for each treated side of the subject's skin every minute for 15 minutes or until three consecutive scores of “zero” irritation were obtained. The following scaled scores were used for sensory assessment:
(§7) Symptom scores were cumulated, separately for the cation-treated and control-treated areas, for each individual and also for the panel as a whole. Individuals not reporting a cumulative score of at least “7” on at least one treatment area were excluded (in a blinded fashion) from further analysis in order to ascertain anti-irritant efficacy with respect to the more severely-susceptible test subjects. From a practical standpoint, scores of “0” and “1” on the above scale would be considered highly desirable for a commercial product because such a response would likely not result in a consumer ceasing to use a product. Some consumers, in fact, might view the “barely perceptible” sensations represented by a score of 1 to be an indication that a facial treatment skin care product (especially an exfoliant) was working as advertised. By contrast, irritation scores of “2”, “3” and “4” would likely often result in a consumer never purchasing the product again.

[2] = system: skin irritation induced by lactic acid (face); assay: Lactic acid irritation trial, time zero test (anti-irritant applied simultaneously with irritant); assay type: in vivo, human; details: for Percent Inhibition (average inhibition of cumulative irritation) / Percent Inhibition: time zero tests; for Percent Inhibition (average inhibition of cumulative irritation): cation salt 250 mM, lactic acid irritant; for Percent Inhibition: representative subject panels, vehicle 10% EtOH
Protocol: as §1, §2, §3, §4, §5, §6, §7

[3] = system: irritation induced by capsaicin; details: 250 mM; capsaicin challenge; pretreatment
From the text: The test compounds of the invention were formulated in Elizabeth Arden “Visible Difference Refining Toner”, with the Toner mixed with equimolar sodium chloride serving as the control. The test solutions (and control) were provided in coded vials for application to either the right or left arms. A template (1.5 in.×4.0 in.) was placed on each forearm to mark the challenge area. The pre-treatment solutions containing the anti-irritant cation of the invention were applied to extend 1 inch beyond the marked challenge area in all directions and were allowed to dry for 5 minutes. 0.5 ml of 0.15% capsaicin cream or a swab moistened with capsaicin solution was thereafter applied to each arm by the clinical technician, who rubbed in the cream using gloved fingers. Application and scoring of test and control formulations was performed sequentially for each arm. Scoring was recorded every minute starting at 5 minutes post-application for 10 minutes and then every 5 minutes for 15 minutes (30 minutes total) for the cream, and every minute starting immediately for 15 minutes for the solution. Assessment was made using the irritation scale described above for the lactic acid test, and a simultaneous visual assessment of erythema was made by the monitoring technician.

[4] = system: skin irritation induced by lactic acid
Protocol: Additional studies of anti-irritant activity using varying concentrations of strontium cations were conducted in order to assess the dose-response behavior of the present formulations. The lactic acid irritation protocol described above was used, in which the anti-irritant cation component was strontium nitrate (31-500 mM).

CC(=O)[O-].CC(=O)[O-].[Sr+2] [Strontium acetate]
Percent Inhibition (average inhibition of cumulative irritation) [1]: 46%
Percent Inhibition [1]: 46%

[Cl-].[Cl-].[Sr+2] [Strontium chloride]
Percent Inhibition (average inhibition of cumulative irritation) [1]: 25%
Percent Inhibition [1]: 20%
Percent Inhibition (average inhibition of cumulative irritation) [2]: 60%
Percent Inhibition ([2]; 250 mM): 58%

O=[N+]([O-])[O-].O=[N+]([O-])[O-].[Sr+2] [Strontium nitrate]
overall efficacy in one representative panel (FIGS. 5-8) [3]: the overall efficacy of the subject formulation is evident
Percent Inhibition (average inhibition of cumulative irritation) [1]: 50%
Percent Inhibition [1]: 56%
Percent Inhibition (cumulative irritation) ([4]; concentration 31 mM): 77%
Percent Inhibition (cumulative irritation) ([4]; concentration 62 mM): 32%
Percent Inhibition (cumulative irritation) ([4]; concentration 125 mM): 42%
Percent Inhibition (cumulative irritation) ([4]; concentration 250 mM): 72%
Percent Inhibition (cumulative irritation) ([4]; concentration 500 mM): 82%
overall efficacy in one panel (FIGS. 1-4) ([2]; 250 mM, time zero test, one panel): the overall efficacy of the subject formulation is clear
Percent Inhibition (average inhibition of cumulative irritation) [2]: 65%
Percent Inhibition ([2]; 250 mM): 64%
